In patent US11591341B2 (ALIGOS THERAPEUTICS, INC., priority 2019, dated 2023):

Experiments:
HBV [1] = test: HBV-DNA Antiviral Assay Using HepG2.2.15 Cells (extracellular HBV DNA by qPCR); assay type: cell-based; conditions: Hepatitis B virus, 168 h; HBV DNA inhibition, HepG2.2.15 cells, extracellular HBV DNA by qPCR on day 7; read-out: EC50
Protocol: The following assay procedure describes the HBV antiviral assay. This assay uses HepG2.2.15 cells, which have been transfected with HBV genome, and extracellular HBV DNA quantification as endpoint. Cell viability is assessed in parallel by measuring the intracellular ATP content using the CellTiter-Glo© reagent from Promega.
On day 0, HepG2.2.15 cells were seeded in 96-well plates at a density of 6.0×10^4 cells/well (0.1 mL/well). The cells were incubated at 37° C. and 5% CO2.
On day 1, the test articles were diluted and added to cell culture wells (8 concentrations, 4-fold dilution, in duplicate). GLS4, Tenofovir and Sorafenib were used as reference compounds. 100 μL of culture medium containing the compounds was added to the plate, and the final total volume per well was 200 μL. The final concentration of DMSO in the culture medium was 0.5%. The plate map of compound treatment is shown below. The cells were cultured at 37° C. and 5% CO2 for 3 days.
On day 4, the plates were refreshed with culture media with compounds.
On day 7, cell viability was assessed using the CellTiter-Glo, and the cell culture supernatants were collected for determination of HBV DNA by qPCR.
Extracellular DNA was isolated with QIAamp 96 DNA Blood Kit per the manufacturer's manual. HBV DNA was then quantified by qPCR with HBV specific primers and probes as specified in Table 1 using the FastStart Universal MasterMix from Roche on an ABI-7900HT. The PCR cycle program consisted of 95° C. for 10 min, followed by 40 cycles at 95° C. for 15 sec and 60° C. for 1 min.
A DNA standard was prepared by dilution of the pAAV2 HBV1.3 plasmid with concentrations ranging from 10 to 1×10^7 copies/μL and used to generate a standard curve by plotting Ct value vs. the concentration of the HBV plasmid DNA standard. The quantity of HBV DNA in each sample was determined by interpolating from the standard curve.
Cell viability was calculated as follows: % Cell viability=(luminescence value of test sample−average luminescence value of blank)/(average luminescence value of 0.5% DMSO control−average luminescence of blank)×100%. HBV DNA inhibition was calculated as follows: 100-(HBV DNA copy number of test sample−HBV DNA copy number of ETV)/HBV DNA copy number of 0.5% DMSO control−HBV DNA copy number of ETV)×100%. The CC50, EC50 and EC90 values were determined by dose-response curves fitted by GraphPad Prism using “log (agonist) vs. response—Variable slope”.

HBV [2] = test: HBV-DNA Antiviral Assay Using HepG2.117 Cells (intracellular HBV DNA by qPCR); assay type: cell-based, hepatitis B virus (genotype D); conditions: Hepatitis B virus, HepG2.117
In short: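 Endpoint: qPCR copy number of intracellular HBV DNA after 3-day compound exposure, with inhibition set relative to the 2% DMSO control. The cells were doxycycline-free HepG2.117 carrying a Tet-off genotype D genome, dosed at nine 4-fold dilutions. A duplicate plate gave ATP-based viability (CC50).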

| Compound | EC50 (HBV [1]) [nM] | EC50 (HBV [2]) [nM] |
| --- | --- | --- |
| O=C(NCc1ccccc1-c1ncccc1F)c1c2n(c(=O)n1-c1ccc(OC3CC3)cc1)CCN(C(=O)c1ccc(Br)c(Cl)c1)C2 [Example 465, 7-(4-bromo-3-chloro-benzoyl)-2-[4-(cyclopropoxy)phenyl]-N-[[2-(3-fluoro-2-pyridyl)phenyl)methyl]-3-oxo-6,8-dihydro-5H-imidazo[1,5-a]pyrazine-1-carboxamide] | 100 to 500 |  |
| C[C@H]1Cn2c(c(C(=O)NCc3ccccc3-c3ncccn3)n(-c3ccc(-n4cccn4)cc3)c2=O)CN1C(=O)c1ccc(Br)c(Cl)c1 (racemic) [Example 469, rac-(6S)-7-(4-bromo-3-chloro-benzoyl)-6-methyl-3-oxo-2-(4-pyrazol-1-ylphenyl)-N-[(2-pyrimidin-2-ylphenyl)methyl]-6,8-dihydro-5H-imidazo[1,5-a]pyrazine-1-carboxamide] | < 100 |  |
| CN1CCCn2c(c3n(c2=O)CCN(C(=O)Nc2ccc(F)c(Cl)c2)C3)C1=O [Example 2, N-(3-chloro-4-fluorophenyl)-11-methyl-6,12-dioxo-1,3,4,8,9,10,11,12-octahydro-2H,6H-pyrazino[1′,2′:3,4]imidazo[1,5-a][1,4]diazepine-2-carboxamide] | 500 to 5000 |  |
| C[C@@H](NC(=O)c1c2n(c(=O)n1-c1ccc(-n3cccn3)cc1)C[C@H](C)N(C(=O)c1ccc(Br)c(Cl)c1)C2)c1ccccc1 (mixture of isomers) [Example 467, (6SR)-7-(4-bromo-3-chloro-benzoyl)-6-methyl-3-oxo-N-[(1R)-1-phenylethyl]-2-(4-pyrazol-1-ylphenyl)-6,8-dihydro-5H-imidazo[1,5-a]pyrazine-1-carboxamide] | 100 to 500 |  |
| COc1ccc(CN2CCn3c(c4n(c3=O)CCN(C(=O)c3ccc(Br)c(F)c3)C4)C2=O)cc1 [Example 18, 12-(4-bromo-3-fluoro-benzoyl)-4-[(4-methoxyphenyl)methyl]-4,7,9,12-tetrazatricyclo[7.4.0.0^2,7]tridec-1-ene-3,8-dione] | > 5000 |  |
| C[C@@H]1Cn2c(c(C(=O)NCc3ccccc3-c3ncccn3)n(-c3ccc(-n4cccn4)cc3)c2=O)CN1C(=O)c1ccc(Br)c(C#N)c1 (stereo in doubt) [Example 470, rac-(6R)-7-(4-bromo-3-cyano-benzoyl)-6-methyl-3-oxo-2-(4-pyrazol-1-ylphenyl)-N-[(2-pyrimidinn-2-ylphenyl)methyl]-6,8-dihydro-5H-imidazo[1,5-a]yrazine-1-carboxamide] | 100 to 500 |  |
| COc1ccc(CN2CCn3c(c4n(c3=O)CCN(C(=O)c3ccc(Br)c(Cl)c3)C4)C2=O)cc1 [Example 19, 12-(4-bromo-3-chloro-benzoyl)-4-[(4-methoxyphenyl)methyl]-4,7,9,12-tetrazatricyclo[7.4.0.0^2,7]tridec-1-ene-3,8-dione] | > 5000 |  |
| COc1ccc(CNC(=O)c2c3n(c(=O)n2Cc2ccccc2)CCN(C(=O)c2ccc(Br)c(Cl)c2)C3)cc1 [Example 14, 2-benzyl-7-(4-bromo-3-chlorobenzoyl)-N-[(4-methoxyphenyl)methyl]-3-oxo-2H,3H,5H,6H,7H,8H-imidazo[1,5-a]pyrazine-1-carboxamide] | > 5000 |  |
| C[C@@H]1Cn2c(c(C(=O)N[C@H](C)c3ccccc3)n(-c3ccc(-n4cccn4)cc3)c2=O)CN1C(=O)c1ccc(Br)c(Cl)c1 (mixture of isomers) [Example 466, (6RS)-7-(4-bromo-3-chloro-benzoyl)-6-methyl-3-oxo-N-[(1R)-1-phenylethyl]-2-(4-pyrazol-1-ylphenyl)-6,8-dihydro-5H-imidazo[1,5-a]pyrazine-1-carboxamide] | 500 to 5000 |  |
| COc1ccc(CN2CCCn3c(c4n(c3=O)CCN(C(=O)Nc3ccc(F)c(Cl)c3)C4)C2=O)cc1 [Example 4, N-(3-chloro-4-fluorophenyl)-11-(4-methoxybenzyl)-6,12-dioxo-1,3,4,8,9,10,11,12-octahydro-2H,6H-pyrazino[1′,2′:3,4]imidazo[1,5-a][1,4]diazepine-2-carboxamide] | < 100 |  |
| C[C@H]1Cn2c(c3n(c2=O)C[C@@H](F)CN(Cc2ccccc2)C3=O)CN1C(=O)c1ccc(Br)c(Cl)c1 (stereo in doubt) [Example 371, 13-benzyl-4-(4-bromo-3-chlorobenzoyl)-11-fluoro-4,7,9,13-tetraazatricyclo[7.5.0.0^[2,7]]tetradec-1-ene-8,14-dione] |  | < 100 |
| CC(NC(=O)c1c2n(c(=O)n1-c1ccc(OCC(F)(F)F)cc1)CCN(C(=O)c1ccc(Br)c(Cl)c1)C2)c1ccc(OC(F)(F)F)cc1F (racemic) [Example 293, 7-(4-bromo-3-chloro-benzoyl)-3-oxo-N-[rac-(1S)-1-[2-fluoro-4-(trifluoromethoxy)phenyl]ethyl]-2-[4-(2,2,2-trifluoroethoxy)phenyl]-6,8-dihydro-5H-imidazo[1,5-a]pyrazine-1-carboxamide] |  | 500 to 5000 |
| COc1ccc(-n2c(C(=O)NCc3ccccc3)c3n(c2=O)CCN(c2ncnc4cc(Cl)ccc24)C3)cc1 [Example 117, N-benzyl-7-(7-chloroquinazolin-4-yl)-2-(4-methoxyphenyl)-3-oxo-6,8-dihydro-5H-imidazo[1,5-a]pyrazine-1-carboxamide] |  | > 5000 |
| C[C@H](Oc1ccc([C@@H](C)NC(=O)c2c3n(c(=O)n2-c2ccc(OC4CC4)cc2)CCN(C(=O)c2ccc(Br)c(Cl)c2)C3)c(F)c1)C(N)=O (stereo in doubt) [Example 356, 7-(4-bromo-3-chloro-benzoyl)-2-[4-(cyclopropoxy)phenyl]-3-oxo-N-[rac-(1R)-1-[2-fluoro-4-[rac-(1S)-2-amino-1-methyl-2-oxo-ethoxy]phenyl]ethyl]-6,8-dihydro-5H-imidazo[1,5-a]pyrazine-1-carboxamide] |  | 100 to 500 |
| O=C(NCc1ccccc1)c1c2n(c(=O)n1-c1cccc(F)c1)CCN(C(=O)c1ccc(Br)c(Cl)c1)C2 [Example 23, N-benzyl-7-(4-bromo-3-chloro-benzoyl)-2-(3-fluorophenyl)-3-oxo-6,8-dihydro-5H-imidazo[1,5-a]pyrazine-1-carboxamide] |  | 500 to 5000 |
| C[C@@H](Oc1ccc(-n2c(C(=O)NCc3ccccc3)c3n(c2=O)CCN(C(=O)c2ccc(Br)c(Cl)c2)C3)cc1)C(F)(F)F (stereo in doubt) [Example 282, N-benzyl-7-(4-bromo-3-chloro-benozyl)-3-oxo-2-[4-[rac-(1R)-2,2,2-trifluoro-1-methyl-ethoxy]phenyl]-6,8-dihydro-5H-imidazo[1,5-a]pyrazine-1-carboxamide] |  | 500 to 5000 |
| CC1(C)CN(c2ccc(-n3c(C(=O)NCc4ccccc4)c4n(c3=O)CCN(C(=O)c3ccc(Br)c(Cl)c3)C4)cc2)CCO1 [Example 410, N-benzyl-7-(4-bromo-3-chloro-benzoyl)-2-[4-(2,2-dimethylmorpholin-4-yl)phenyl]-3-oxo-6,8-dihydro-5H-imidazo[1,5-a]pyrazine-1-carboxamide] |  | 100 to 500 |
| COc1ccc(-n2c(C(=O)N[C@@H]3CCc4cc(OC)ccc43)c3n(c2=O)CCN(C(=O)c2ccc(Br)c(Cl)c2)C3)cc1 (stereo in doubt) [Example 99, 7-(4-bromo-3-chloro-benozyl)-2-(4-methoxyphenyl)-3-oxo-N-[rac-(1R)-5-methoxyindazin-1-yl]-6,8-dihydro-5H-imidazo[1,5-a]pyrazine-1-carboxamide] |  | 500 to 5000 |
| CC(C)(Oc1ccc(CNC(=O)c2c3n(c(=O)n2-c2ccc(OC4CC4)cc2)CCN(C(=O)c2ccc(Br)c(Cl)c2)C3)c(F)c1)C(N)=O [Example 365, N-[[4-(2-amino-1,1-dimethyl-2-oxo-ethoxy)-2-fluoro-phenyl]methyl]-7-(4-bromo-3-chloro-benzoyl)-2-[4-(cyclopropoxy)phenyl]-3-oxo-6,8-dihydro-5H-imidazo[1,5-a]pyrazine-1-carboxamide] |  | < 100 |
| COc1ccc(-n2c(C(=O)NC(c3ccccc3)C(C)C)c3n(c2=O)CCN(C(=O)c2ccc(Br)c(Cl)c2)C3)cc1 (racemic) [Example 160, 7-(4-bromo-3-chloro-benzoyl)-2-(4-methoxyphenyl)-3-oxo-N-[rac-(1S)-2-methyl-1-phenyl-propyl]-6,8-dihydro-5H-imidazo[1,5-a]pyrazine-1-carboxamide] |  | 500 to 5000 |
